These results are taken from patent US9732063B2, “Kinase inhibitors” (RESPIVERT LIMITED, priority 2012, dated 2017).

Structures are written as SMILES.

One test has as its target GSK3α (Homo sapiens (Human), UniProt P49840). In words: GSK 3α enzyme inhibition (Z-LYTE FRET, Method 2). In kind it is biochemical. As for the experimental part:
The enzyme inhibitory activities of compounds disclosed herein are determined by FRET using synthetic peptides labelled with both donor and acceptor fluorophores (Z-LYTE, Invitrogen Ltd., Paisley, UK).
The inhibitory activities of compounds of the invention against the GSK 3α enzyme isoform (Invitrogen), are evaluated by determining the level of activation/phosphorylation of the target peptide. The GSK3-α protein (500 ng/mL, 2.5 μL) is mixed with the test compound (2.5 μL at either 4 μg/mL, 0.4 μg/mL, 0.04 μg/mL, or 0.004 μg/mL) for 2 hr at RT. The FRET peptide (8 μM, 2.5 μL), which is a phosphorylation target for GSK3α, and ATP (40 μM, 2.5 μL) are then added to the enzyme/compound mixture and the resulting mixture incubated for 1 hr. Development reagent (protease, 5 μL) is added for 1 hr prior to detection in a fluorescence microplate reader (Varioskan® Flash, ThermoFisher Scientific).
In all cases, the site-specific protease cleaves non-phosphorylated peptide only and eliminates the FRET signal. Phosphorylation levels of each reaction are calculated using the ratio of coumarin emission (donor) over fluorescein emission (acceptor), for which high ratios indicate high phosphorylation and low ratios indicate low phosphorylation levels.

Test [1] concerns PBMCs. In words: LPS-induced TNFα/IL-8 release in PBMC cells. In kind it is cell-based. Conditions: Homo sapiens, read-out: IC50 Values for Inhibition of Cytokine Release PBMCs IL-8. How it is done:
Peripheral blood mononuclear cells (PBMCs) from healthy subjects are separated from whole blood using a density gradient (Lymphoprep, Axis-Shield Healthcare). The PBMCs are seeded in 96 well plates and treated with compounds at the desired concentration for 2 hours before addition of 1 ng/mL LPS (Escherichia Coli O111:B4 from Sigma Aldrich) for 24 hours under normal tissue culture conditions (37° C., 5% CO2). The supernatant is harvested for determination of IL-8 and TN Fa concentrations by sandwich ELISA (Duo-set, R&D systems) and read on the fluorescence microplate reader (Varioskan® Flash, ThermoFisher Scientific).

Test [2] relates to PBMCs. In words: IL-2 and IFN gamma release in CD3/CD28 stimulated PBMC cells. It is filed as cell-based. Conditions: Homo sapiens. How it is done:
PBMCs from healthy subjects are separated from whole blood using a density gradient (Lymphoprep, Axis-Shield Healthcare). Cells are added to a 96 well plate pre-coated with a mixture of CD3/CD38 monoclonal antibodies (0.3 μg/mL eBioscience and 3 μg/mL BD Pharmingen respectively). Compound at the desired concentration is then added to the wells and the plate left for 3 days under normal tissue culture conditions. Supernatants are harvested and IL-2 and IFN gamma release determined by Sandwich ELISA (Duo-set, R&D System). The IC50 is determined from the dose response curve.

Sequence of GSK3α (P49840 whole entry): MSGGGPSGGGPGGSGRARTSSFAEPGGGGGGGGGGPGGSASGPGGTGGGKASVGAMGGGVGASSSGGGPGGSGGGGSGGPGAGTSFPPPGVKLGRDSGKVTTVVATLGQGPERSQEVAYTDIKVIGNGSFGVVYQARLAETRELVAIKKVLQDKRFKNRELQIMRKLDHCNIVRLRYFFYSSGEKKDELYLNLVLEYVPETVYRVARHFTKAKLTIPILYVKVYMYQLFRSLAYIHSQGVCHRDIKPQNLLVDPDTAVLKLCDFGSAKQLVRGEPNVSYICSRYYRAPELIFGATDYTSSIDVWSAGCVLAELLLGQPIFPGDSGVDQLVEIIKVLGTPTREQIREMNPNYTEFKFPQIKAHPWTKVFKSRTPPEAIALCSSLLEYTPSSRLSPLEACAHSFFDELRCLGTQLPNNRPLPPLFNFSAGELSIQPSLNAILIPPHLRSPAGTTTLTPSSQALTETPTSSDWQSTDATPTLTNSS

What is called IC50 is the concentration at which inhibition is half-maximal. Turning to `COCCOCCOCCOc1cc(C#N)cc(Nc2nccc(Oc3ccc(NC(=O)Nc4cc(C(C)(C)C)nn4-c4ccc(C)cc4)c4ccccc34)n2)c1` [Example 52, 1-(3-(tert-Butyl)-1-(P-tolyl)-1H-pyrazol-5-yl)-3-(4-((2-((3-cyano-5-(2-(2-(2-methoxyethoxy)-ethoxy)ethoxy)phenyl)amino)pyrimidin-4-yl)oxy)naphthalen-1-yl)urea], the IC50 is greater than 13000 nM at GSK3α and 15 nM with PBMCs [1]. With `COCCOCCOCCOc1cccc(Nc2nccc(Oc3ccc(NC(=O)Nc4cc(C(C)(C)C)nn4-c4ccc(OC)nc4)c4ccccc34)n2)c1` [Example 4, 1-(3-(tert-Butyl)-1-(6-methoxypyridin-3-yl)-1H-pyrazol-5-yl)-3-(4-((2-((3-(2-(2-(2-methoxy-ethoxy)ethoxy)ethoxy)phenyl)amino)pyrimidin-4-yl)oxy)naphthalen-1-yl)urea], the IC50 in the test with PBMCs [1] worked out at 1.7 nM. Same read-out and setting: the result for `COc1cc(Nc2nccc(Oc3ccc(NC(=O)Nc4cc(C(C)(C)C)nn4-c4ccc(C)cc4)c(Cl)c3Cl)n2)cc(OCCN2CCOCC2)c1` [Example 59, 1-(3-(tert-Butyl)-1-(p-tolyl)-1H-pyrazol-5-yl)-3-(2,3-dichloro-4-((2-((3-methoxy-5-(2-morpholinoethoxy)phenyl)amino)pyrimidin-4-yl)oxy)phenyl)urea] reads 4.2 nM. Regarding `C#Cc1cc(Nc2nccc(Oc3ccc(NC(=O)Nc4cc(C(C)(C)C)nn4-c4ccc(C)cc4)c4ccccc34)n2)cc(OCCOCCOCCOC)c1` [Example 54, 1-(3-(tert-Butyl)-1-(p-tolyl)-1H-pyrazol-5-yl)-3-(4-((2-((3-ethynyl-5-(2-(2-(2-methoxyethoxy)ethoxy)ethoxy)phenyl)amino)pyrimidin-4-yl)oxy)naphthalen-1-yl)urea], the values for the IC50 on GSK3α and in the test with PBMCs [1] were greater than 10000 nM and 4.5 nM, respectively.

As to `COc1ccc(-n2nc(C(C)(C)C)cc2NC(=O)Nc2ccc(Oc3ccnc(Nc4cccc(S(=O)(=O)C5CC5)c4)n3)c3ccccc23)cn1` [Example 8, 1-(3-(tert-Butyl)-1-(6-methoxypyridin-3-yl)-1H-pyrazol-5-yl)-3-(4-((2-((3-(cyclopropyl-sulfonyl)phenyl)amino)pyrimidin-4-yl)oxy)naphthalen-1-yl)urea], the half-maximal inhibitory concentration (IC50) on GSK3α came to 258 nM; in the test on PBMCs [1], 1 nM.

For `COc1ccc(-n2nc(C(C)(C)C)cc2NC(=O)Nc2ccc(Oc3ccnc(Nc4cccc(SCCO)c4)n3)c3ccccc23)cn1` [Example 6], the IC50 amounted to 501 nM at GSK3α and 1.6 nM in the test on PBMCs [1]. In the same order, the values of `COCCOCCOCCOc1cc(Nc2nccc(Oc3ccc(NC(=O)Nc4cc(C(C)C)nn4-c4ccc(C)cc4)c4ncccc34)n2)cc(OC)c1` [Example 27, 1-(3-Isopropyl-1-(P-tolyl)-1H-pyrazol-5-yl)-3-(5-((2-((3-methoxy-5-(2-(2-(2-methoxy-ethoxy)ethoxy)ethoxy)phenyl)amino)pyrimidin-4-yl)oxy)quinolin-8-yl)urea] are greater than 10000 nM and 24.8 nM.

With `COCCOCCOCCOc1cc(Nc2nccc(Oc3ccc(NC(=O)Nc4cc(C(C)C)nn4-c4ccc(C)cc4)c4ccccc34)n2)cc(OC(F)(F)F)c1` [Example 33, 1-(3-Isopropyl-1-(p-tolyl)-1H-pyrazol-5-yl)-3-(4-((2-((3-(2-(2-(2-methoxyethoxyl)ethoxy)-ethoxy)-5-(trifluoromethoxy)phenyl)amino)pyrimidin-4-yl)oxy)naphthalen-1-yl)urea], the IC50 against GSK3α is greater than 10000 nM; in the test on PBMCs [1], 8.7 nM. The corresponding values for `COc1cc(Nc2nccc(Oc3ccc(NC(=O)Nc4cc(C(C)C)nn4-c4ccc(C)cc4)c4ncccc34)n2)cc(OCCN2CCOCC2)c1` [Example 28, 1-(3-Isopropyl-1-(P-tolyl)-1H-pyrazol-5-yl)-3-(5-((2-((3-methoxy-5-(2-morpholinoethoxy)-phenyl)amino)pyrimidin-4-yl)oxy)quinolin-8-yl)urea] are greater than 10000 nM and 24 nM. In the same order, the values of `COCCOCCOCCSc1cc(Nc2nccc(Oc3ccc(NC(=O)Nc4cc(C(C)C)nn4-c4ccc(C)cc4)c4ccccc34)n2)cc(OC)c1` [Example 31, 1-(3-Isopropyl-1-(P-tolyl)-1H-pyrazol-5-yl)-3-(4-((2-((3-methoxy-5-((2-(2-(2-methoxy-ethoxy)ethoxy)ethyl)thio)phenyl)amino)pyrimidin-4-yl)oxy)naphthalen-1-yl)urea] are greater than 10000 nM and 4.4 nM. `Cc1ccc(-n2nc(C(C)(C)C)cc2NC(=O)Nc2ccc(Oc3ccnc(Nc4cccc(S(=O)(=O)C5CC5)c4)n3)c3ccccc23)cc1` [Example 46, 1-(3-(tert-Butyl)-1-(p-tolyl)-1H-pyrazol-5-yl)-3-(4-((2-((3-(cyclopropylsulfonyl)phenyl)-amino)pyrimidin-4-yl)oxy)naphthalen-1-yl)urea]: the IC50 at GSK3α stood at 172 nM; in the test on PBMCs [1], 2.7 nM. The corresponding values for `COc1cc(N=S(C)(C)=O)cc(Nc2nccc(Oc3ccc(NC(=O)Nc4cc(C(C)C)nn4-c4ccc(C)cc4)c(Cl)c3Cl)n2)c1` [Example 26] are 426 nM and 3.9 nM. In the same order, the values of `COCCOCCOCCOc1cc(Nc2nccc(Oc3ccc(NC(=O)Nc4cc(C(C)C)nn4-c4ccc(C)cc4)c4ccccc34)n2)cc(C(F)(F)F)c1` [Example 34] are greater than 10000 nM and 12.2 nM. As to `COc1cc(Nc2nccc(Oc3ccc(NC(=O)Nc4cc(C(C)(C)C)nn4-c4ccc(C)cc4)c4ccccc34)n2)cc(OCCOCCOCCN2CCOCC2)c1` [Example 58, 1-(3-(tert-Butyl)-1-(p-tolyl)-1H-pyrazol-5-yl)-3-(4-((2-((3-methoxy-5-(2-(2-(2-morpholinoethoxy)ethoxy)ethoxy)phenyl)amino)pyrimidin-4-yl)oxy)naphthalen-1-yl)urea], the figures for the IC50 in the test on PBMCs [2] (read-out: IC50 Values for Inhibition of Cytokine Release PBMCs IFNγ) and in the test with PBMCs [2] (read-out: IC50 Values for Inhibition of Cytokine Release PBMCs IL-2) were 1.3 nM and 39.6 nM, respectively. As to `COc1cc(N=S(C)(C)=O)cc(Nc2nccc(Oc3ccc(NC(=O)Nc4cc(C(C)C)nn4-c4ccc(C)cc4)c4ccccc34)n2)c1` [Example 16, 3-(5-Methoxy((4-((4-(3-(3-isopropyl-1-(p-tolyl)-1H-pyrazol-5-yl)ureido)naphthalen-1-yl)-oxy)pyrimidin-2-yl)amino))phenyl-S,S-dimethyl-N-phenyl sulfoximine], the IC50 in the test with PBMCs [1] (LPS-stimulated PBMCs) worked out at 1.7 nM.

With `COc1cc(Nc2nccc(Oc3ccc(NC(=O)Nc4cc(C(C)(C)C)nn4-c4ccc(C)cc4)c(Cl)c3Cl)n2)cc(S(=O)(=O)C2CC2)c1` [Example 68, 1-(3-(tert-Butyl)-1-(p-tolyl)-1H-pyrazol-5-yl)-3-(2,3-dichloro-4-((2-((3-(cyclopropylsulfonyl)-5-methoxyphenyl)amino)pyrimidin-4-yl)oxy)phenyl)urea], the IC50 with PBMCs [1] is 5.2 nM. Consider `COCCOCCOCCN(C)c1cc(Nc2nccc(Oc3ccc(NC(=O)Nc4cc(C(C)(C)C)nn4-c4ccc(C)cc4)c4ccccc34)n2)cc(OC)c1` [Example 67, 1-(3-(tert-Butyl)-1-(p-tolyl)-1H-pyrazol-5-yl)-3-(4-((2-((3-methoxy-5-((2-(2-(2-methoxyethoxy)ethoxy)ethyl)(methyl)amino)phenyl)amino)pyrimidin-4-yl)oxy)naphthalen-1-yl)urea], for which the IC50 in the test with PBMCs [1] came to 3.5 nM.
